Patent US11291655B2, “RAD51 inhibitors” (Cyteir Therapeutics, Inc., priority 2017, dated 2022)

Test system: Daudi Cell Culture
Assay: Compound primary screening in Daudi cell culture
Format: cell-based
Conditions: Daudi cells, 1250 cells per well, reads on Day 7
Protocol: Compound Primary Screening
1. Materials and Supplies
Plastic ware and consumables needed for this experiment include: Cell Culture media; Evaporation Buffer media; 100% DMSO; 96 well U-bottom sterile culture plates; 250 mL bottle; 1.5 mL Opaque amber epi tubes; Epi Tube rack; 300 mL reservoirs; 25 mL reservoir; 25 mL serological pipette tips; 5 mL serological pipette tips P1000 Pipette Tips; and P200 Pipette Tips.
Equipment needed for this experiment include: Viaflo 384 liquid handler; Eppendorf serological pipette; Eppendorf P1000 Pipette; and Eppendorf P200 Pipette
Daudi Cell Culture is also needed for this experiment.
Lastly, compounds (e.g., the compounds of this invention) to be tested are needed.
All steps were performed in a sterile environment inside the Biosafety cabinet.
A 96 well u-bottom plate was prepared by writing the experiment number, plate number, date and initials in the top right corner of the plate lid. With a sterile 300 ml reservoir, and 25 ml serological pipette, evaporation buffer media was pipetted into reservoir in 25 ml increments. Using the liquid handler, 150 ul of evaporation buffer media was pipetted from reservoir into rows A and H, and Columns 1 and 12 of the 96 well u-bottom plate. Cell cultures were counted to obtain the density of cells per ml, and the culture viability. The cell density information was used to obtain 1,000,000 cells from culture using a 5 mL serological pipette into an epi tube. The cell density information from the culture was used to calculate the number of cells and volume of media needed for the assay to seed 1250 cells in 130 ul of media per available culture well in the 96 well u-bottom plate. Rows B through F were used for cells (50 wells in total), with row G left for an empty media control. The calculation was overestimated by 10 mL to account for the dead volume in the 300 ml reservoir. Once the media volume was calculated, the appropriate volume of media was pipetted in 25 mL increments into the 250 mL bottle using a 25 mL serological pipette. The 250 ml bottle was capped tightly, and placed into a 37° C. water bath for 2 minutes. While the culture media was warming, 10 mL of fresh media was pipetted from the 500 mL culture media bottle into a sterile 25 mL reservoir. Using the Eppendorf multichannel pipette, 130 ul of media was pipetted from the 25 mL reservoir into row G of the 96 well u-bottom plate. Once the 250 mL bottle of media was warmed, the volume of culture needed was pipetted into the bottle, and mixed gently with a 25 mL serological pipette as to not create bubbles, and then the contents of the bottle were pipetted into a new 300 mL reservoir. Using the liquid handler, 130 ul of culture was pipetted from the 300 mL reservoir into rows B through F of the 96 well u-bottom plate. Once the culture was added, the plate was placed into a 37° C. incubator until the compound master plate was prepared for use.
Two 96 well u-bottom plates were prepared by writing the master plate name in the upper right corner of the plate lid. Labeling one DMSO master and the other Media Master. The compounds of interest were obtained from the laboratory freezer, and placed into a 25 well storage box with a lid, and set the box aside. The compounds were vortexed after thawing but before use. Using an automatic multichannel pipette, 20 ul of 100% DMSO was pipetted into wells B3-B11 through G3-G11 of the DMSO master plate. For each compound on the master plate, 50 ul of the compound were pipetted in the appropriate well of row 2 (reference plate map to determine appropriate well). A serial dilution was prepared beginning by aspirating 20 ul from row 2 and mixing with row 3, repeating until row 11 was reached. Using the liquid handler, 194 ul of Daudi media was dispensed into wells B2-B11 through G2-G11 of the Media master plate. Using the liquid handler, 6 ul from the DMSO master plate was aspirated and dispensed into the media master plate, mixing 100 ul twice. […]

| SMILES | EC50 (μM) |
| --- | --- |
| Cc1cc(-c2ncc(-c3ccc(N4CCCC4=O)cc3S(=O)(=O)NC(C)(C)C)s2)ccc1NC(=O)OC(C)C [Compound J17] | FAIL |

Same assay, conditions: Homo sapiens, 168 h; Daudi cells, 1250 cells per well, reads on Day 7

| EC50 | SMILES |
| --- | --- |
| > 10 µM | CCNS(=O)(=O)c1cc(NC(C)=O)ccc1-c1cnc(-c2ccc(NC(=S)NC(C)C)cc2)s1 [Compound D9] |
| > 10 µM | CC(=O)N(C)c1ccc(-c2cnc(-c3ccc(NC(=S)NC(C)C)cc3)s2)c(S(=O)(=O)NC(C)(C)C)c1 [Compound E15] |
| > 10 µM | CCS(=O)(=O)Nc1ccc(-c2ncc(-c3ccc(NC(C)=O)cc3S(=O)(=O)NC(C)(C)C)s2)cc1 [Compound G7] |
| > 10 µM | CC(=O)Nc1ccc(-c2cnc(-c3ccc(NC(=S)NC(C)C)cc3)s2)c(S(=O)(=O)NCCO)c1 [Compound D28] |
| > 10 µM | COCCS(=O)(=O)Nc1ccc(-c2ncc(-c3ccc(NC(C)=O)cc3S(=O)(=O)NC(C)(C)C)s2)cc1 [Compound G8] |
| > 10 µM | CC(C)NC(=S)Nc1ccc(-c2ncc(-c3ccc(NC(=O)NCc4ncc[nH]4)cc3S(=O)(=O)NC(C)(C)C)s2)cc1 [Compound N5] |
| > 10 µM | CC(=O)Nc1ccc(-c2cnc(-c3ccc(NCC(C)O)cc3)s2)c(S(=O)(=O)NC(C)(C)C)c1 (centres unmarked) [Compound J11] |
| > 10 µM | CC(C)(C)NS(=O)(=O)c1cc(Nc2nccs2)ccc1-c1cnc(-c2ccc(N)cc2)s1 [Compound E12] |
| > 10 µM | CC(=O)Nc1ccc(-c2cnc(-c3ccc(NC(=S)NC(C)C)cc3)s2)c(S(=O)(=O)N[C@H](CO)C(C)C)c1 [Compound D18] |
| < 10 µM | CC(=O)Nc1ccc(-c2cnc(-c3ccc(NC(=O)NC(C)C)cc3)s2)c(S(=O)(=O)NC(C)(C)C)c1 [Compound G10] |
| < 10 µM | CC(C)NC(=S)Nc1ccc(-c2ncc(-c3ccc(NC(=O)NCc4cccc(O)c4)cc3S(=O)(=O)NC(C)(C)C)s2)cc1 [Compound N2] |
| > 10 µM | CC(=O)Nc1ccc(-c2cnc(-c3ccc(NC(=S)NC(C)C)cc3)s2)c(S(=O)(=O)NCc2ccncc2)c1 [Compound D12] |
| < 1 µM | CCOC(=O)Nc1ccc(-c2ncc(-c3ccc(NC(C)=O)cc3S(=O)(=O)NC(C)(C)C)s2)cc1 [Compound G3] |
| < 10 µM | CC(C)OC(=O)Nc1ccc(-c2ncc(-c3ccc(CNS(C)(=O)=O)cc3S(=O)(=O)NC(C)(C)C)s2)cc1 [Compound P5] |
| < 1 µM | CC(=O)Nc1ccc(-c2cnc(-c3ccc(NC(=S)NC(C)C)cc3S(=O)(=O)NC(C)(C)C)s2)c(S(=O)(=O)NC(C)(C)C)c1 [Compound E9] |
| < 10 µM | COC(=O)Nc1ccc(-c2ncc(-c3ccc(NC(C)=O)cc3S(=O)(=O)NC(C)(C)C)s2)cc1 [Compound G2] |
| > 10 µM | CC(=O)Nc1ccc(-c2cnc(-c3ccc(NC(=S)NC(C)C)cc3)s2)c(S(=O)(=O)NCc2ccccn2)c1 [Compound D3] |
| < 5 µM | CC(=O)Nc1ccc(-c2ncc(-c3ccc(NC(=S)NC(C)C)cc3S(=O)(=O)NC(C)(C)C)s2)c(S(=O)(=O)NC(C)(C)C)c1 [Compound E21] |
| < 5 µM | CC(C)OC(=O)Nc1ccc(-c2ncc(-c3ccc(-c4ccn[nH]4)cc3S(=O)(=O)NC(C)(C)C)s2)cc1 [Compound J2] |
| < 5 µM | CC(C)OC(=O)Nc1ccc(-c2ncc(-c3ccc(N(C)S(C)(=O)=O)cc3S(=O)(=O)NC(C)(C)C)s2)cc1 [Compound J18] |
| > 10 µM | COCCC(=O)NCc1ccc(-c2cnc(-c3ccc(NC(=O)OC(C)C)cc3)s2)c(S(=O)(=O)NC(C)(C)C)c1 [Compound O2] |

| EC50 | SMILES |
| --- | --- |
| > 10 µM | CC(=O)Nc1ccc(-c2cnc(-c3ccc(NC(=S)NC(C)C)cc3)s2)c(S(=O)(=O)NCC(C)(C)CO)c1 [Compound D4] |
| < 5 µM | CNC(=O)c1ccc(-c2cnc(-c3ccc(NC(=O)OC(C)C)cc3)s2)c(S(=O)(=O)NC(C)(C)C)c1 [Compound I5] |
| > 10 µM | CC(=O)Nc1ccc(-c2cnc(-c3ccc(N4CC(C)(C)OC4=O)cc3)s2)c(S(=O)(=O)NC(C)(C)C)c1 [Compound J13] |
| > 10 µM | CC(C)OC(=O)Nc1ccc(-c2ncc(-c3ccc(CNC(=O)OCc4ccccc4)cc3S(=O)(=O)NC(C)(C)C)s2)cc1 [Compound Q2, isopropyl N-[4-[5-[4-(benzyloxycarbonylaminomethyl)-2-(tert-butylsulfamoyl)phenyl]thiazol-2-yl]phenyl]carbamate] |
| < 10 µM | CC(C)N(C)C(=O)Nc1ccc(-c2ncc(-c3ccc(N4CCCC4=O)cc3S(=O)(=O)NC(C)(C)C)s2)cc1 [Compound A7] |
| < 10 µM | CC(=O)N(C)c1ccc(-c2cnc(-c3ccc(NC(=O)OC(C)C)cc3)s2)c(S(=O)(=O)NC(C)(C)C)c1 [Compound E20] |
| < 5 µM | CC(C)OC(=O)Nc1ccc(-c2ncc(-c3ccc(CO)cc3S(=O)(=O)NC(C)(C)C)s2)cc1 [Compound J1] |
| < 5 µM | CC(C)OC(=O)Nc1ccc(-c2ncc(-c3ccc(NC(=O)C4CC4)cc3S(=O)(=O)NC(C)(C)C)s2)cc1 [Compound H3] |
| < 10 µM | CC(C)OC(=O)Nc1ccc(-c2ncc(-c3ccc(CNC(=O)Cc4ccccc4)cc3S(=O)(=O)NC(C)(C)C)s2)cc1 [Compound O4] |
| < 1 µM | CC(C)OC(=O)Nc1ccc(-c2ncc(-c3ccc(NC(=O)NC(C)c4ccccc4)cc3S(=O)(=O)NC(C)(C)C)s2)cc1 (centres unmarked) [Compound C1] |
| < 1 µM | CC(C)OC(=O)Nc1ccc(-c2ncc(-c3ccc(NC(=O)OC(C)c4ccccc4)cc3S(=O)(=O)NC(C)(C)C)s2)cc1 (centres unmarked) [Compound B15] |
| > 10 µM | CC(=O)Nc1ccc(-c2cnc(-c3ccc(NC(=S)NC(C)C)cc3)s2)c(S(=O)(=O)NCCN)c1 [Compound D17] |
| > 10 µM | CC(=O)Nc1ccc(-c2cnc(-c3ccc(NC(=S)NC(C)C)cc3)s2)c(S(=O)(=O)N[C@@H](C)CO)c1 [Compound D5] |
| < 10 µM | CC(=O)Nc1ccc(-c2cnc(-c3ccc(NC(C)=O)cc3S(=O)(=O)NC(C)(C)C)s2)c(S(=O)(=O)NC(C)(C)C)c1 [Compound E3] |
| < 1 µM | CC(C)OC(=O)Nc1ccc(-c2ncc(-c3ccc(NC(=O)OCc4nccs4)cc3S(=O)(=O)NC(C)(C)C)s2)cc1 [Compound B11] |
| > 10 µM | CC(C)NC(=S)Nc1ccc(-c2ncc(-c3ccc(Nc4nccn4C)cc3S(=O)(=O)NC(C)(C)C)s2)cc1 [Compound E17] |
| < 10 µM | CC(C)NC(=S)Nc1ccc(-c2ncc(-c3ccc(NC(=O)NCc4ccccn4)cc3S(=O)(=O)NC(C)(C)C)s2)cc1 [Compound M4] |
| < 5 µM | CC(C)OC(=O)Nc1ccc(-c2ncc(-c3ccc(N4CCCOC4=O)cc3S(=O)(=O)NC(C)(C)C)s2)cc1 [Compound J24, isopropyl N-[4-[5-[2-(tert-butylsulfamoyl)-4-(2-oxo-1,3-oxazinan-3-yl)phenyl]thiazol-2-yl]phenyl]carbamate] |
| < 5 µM | CC(C)OC(=O)Nc1ccc(-c2ncc(-c3ccc(CNC(=O)c4ccncc4)cc3S(=O)(=O)NC(C)(C)C)s2)cc1 [Compound O7] |
| < 1 µM | CC(C)OC(=O)Nc1ccc(-c2ncc(-c3ccc(NC(=O)OCC4CCCCC4)cc3S(=O)(=O)NC(C)(C)C)s2)cc1 [Compound B10] |

| SMILES | EC50 |
| --- | --- |
| CC(=O)Nc1ccc(-c2cnc(-c3ccc(NC(=O)OC(C)C)nc3)s2)c(S(=O)(=O)NC(C)(C)C)c1 [Compound J5] | < 1 µM |
| CCOC(=O)Nc1ccc(-c2cnc(-c3ccc(NC(=S)NC(C)C)cc3)s2)c(S(=O)(=O)NC(C)(C)C)c1 [Compound L5] | < 5 µM |
| CC(C)OC(=O)Nc1ccc(-c2ncc(-c3ccc(N4CCCC4=O)cc3S(=O)(=O)NC(C)(C)C)s2)cc1F [Compound J9, isopropyl N-[4-[5-[2-(tert-butylsulfamoyl)-4-(2-oxopyrrolidin-1-yl)phenyl]thiazol-2-yl]-2-fluoro-phenyl]carbamate] | < 5 µM |
| CC(C)NC(=S)Nc1ccc(-c2ncc(-c3ccc(NC(=O)OCc4ccccc4)cc3S(=O)(=O)NC(C)(C)C)s2)cc1 [Compound L4] | > 10 µM |
| CC(=O)Nc1ccc(-c2cnc(-c3ccc(NC(=S)NCc4ccccc4)cc3)s2)c(S(=O)(=O)NC(C)(C)C)c1 [Compound L9] | < 5 µM |
